Consider 33 compounds from patent US11174253B2, “Compound and pharmaceutical composition containing the same” (ALPHALA CO., LTD., priority 2017, dated 2021).

In general, viability refers to a read-out of living cells in per cent, often relative to untreated cells.

This assay relates to hepatocellular carcinoma cell line Hep3B. The assay is described as follows: Growth inhibition of Hep3B cells, 48 hr treatment, Hoechst 33342 nucleus count (GE InCell 2200). The format is cell-based. As to conditions: Homo sapiens. In a few lines: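 Compound exposure lasted 48 hr at 37° C, 5% CO2. Surviving nuclei were counted after Hoechst 33342 staining, and survival was expressed as the treated/non-treated cell number ratio, including the ratio at 10 μM compound.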

[1] abbreviates: Table 1, ratio of number of tumor cells treated with 10 μM compound to non-treated cells.
Where [2] appears, read: Table 5, ratio of number of tumor cells treated with 10 μM compound to non-treated cells.
[3] abbreviates: Table 6, ratio of number of tumor cells treated with 10 μM compound to non-treated cells.

Regarding `Nc1nc2ccc(CC(=O)Nc3nnc(-c4ccc(Br)c([N+](=O)[O-])c4)s3)cc2s1` [Compound 1-13, 2-(2-aminobenzo[d]thiazol-6-yl)-N-(5-(4-bromo-3-nitrophenyl)-1,3,4-thiadiazol-2-yl)acetamide], the viability at 10 µM under setting [1] was 60%. In the case of `CCCOc1ccc(-c2nc(NC(=O)c3ccc([N+](=O)[O-])s3)sc2Oc2ccc(F)cc2Cl)cc1` [Compound 5-45, N-(5-(2-chloro-4-fluorophenoxy)-4-(4-propoxyphenyl)thiazol-2-yl)-5-nitrothiophene-2-carboxamide], the viability at 10 µM under setting [2] was 28%. The same measure, in the same setting: the value for `CCCOc1ccc(-c2nc(NC(=O)c3ccc([N+](=O)[O-])o3)sc2Oc2ccc(F)cc2)cc1` [Compound 5-49, N-(5-(4-fluorophenoxy)-4-(4-propoxyphenyl)thiazol-2-yl)-5-nitrofuran-2-carboxamide] was 41%. Still for that read-out and setting: the value for `CCCOc1ccc(-c2nc(NC(=O)c3ccc([N+](=O)[O-])s3)sc2Oc2cccc3cccnc23)cc1` [Compound 5-52, 5-nitro-N-(4-(4-propoxyphenyl)-5-(quinolin-8-yloxy)thiazol-2-yl)thiophene-2-carboxamide] was 41%; that for `NCCCCCOc1ccc(-c2nc(NC(=O)c3ccc([N+](=O)[O-])s3)sc2Oc2ccccc2)cc1` [Compound 5-92, N-(4-(4-((5-aminopentyl)oxy)phenyl)-5-phenoxythiazol-2-yl)-5-nitrothiophene-2-carboxamide] was 46%. On the same count and under the same terms, to `CCCOc1ccc(-c2nc(NC(=O)c3ccc([N+](=O)[O-])s3)sc2Oc2ccc(F)cc2F)cc1` [Compound 5-37, N-(5-(2,4-difluorophenoxy)-4-(4-propoxyphenyl)thiazol-2-yl)-5-nitrothiophene-2-carboxamide] belongs 38%. For `CC(C)(C)c1ccc(-c2nc(NC(=O)c3ccc([N+](=O)[O-])s3)sc2-c2c(F)cc(F)cc2F)cc1` [Compound 6-52, N-(4-(4-(tert-butyl)phenyl)-5-(2,4,6-trifluorophenyl)thiazol-2-yl)-5-nitrothiophene-2-carboxamide], the viability at 10 µM under setting [3] is 37%.

As for `CCC(C)(C)c1ccc(-c2nc(NC(=O)c3ccc([N+](=O)[O-])s3)sc2Oc2ccccc2)cc1` [Compound 5-59, 5-nitro-N-(4-(4-(tert-pentyl)phenyl)-5-phenoxythiazol-2-yl)thiophene-2-carboxamide], the viability at 10 µM under setting [2] was 38%. On the same count and under the same terms, the value for `CC(C)(C)c1ccc(Oc2sc(NC(=O)c3ccc([N+](=O)[O-])s3)nc2-c2ccc(C(C)(C)C)cc2)cc1` [Compound 5-96, N-(5-(4-(tert-butyl)phenoxy)-4-(4-(tert-butyl)phenyl)thiazol-2-yl)-5-nitrothiophene-2-carboxamide] was 47%. Still for that read-out and setting: the value for `CN(C)CC#Cc1ccc(-c2nc(NC(=O)c3ccc([N+](=O)[O-])s3)sc2Oc2ccccc2)s1` [Compound 5-46, N-(4-(5-(3-(dimethylamino)prop-1-yn-1-yl)thiophen-2-yl)-5-phenoxythiazol-2-yl)-5-nitrothiophene-2-carboxamide] was 53%; that for `CCCCOc1ccc(-c2nc(NC(=O)c3ccc([N+](=O)[O-])s3)sc2Oc2ccc(C#N)cc2)cc1` [Compound 5-91, N-(4-(4-butoxyphenyl)-5-(4-cyanophenoxy)thiazol-2-yl)-5-nitrothiophene-2-carboxamide] was 46%.

On to `CCOc1ccc(-c2csc(NC(=O)Cc3ccc4nc(N)sc4c3)n2)c(OCC)c1` [Compound 3-12, 2-(2-aminobenzo[d]thiazol-6-yl)-N-(4-(2,4-diethoxyphenyl)thiazol-2-yl)acetamide], for which, for the setting “Table 3, ratio of number of tumor cells treated with 10 μM compound to non-treated cells”, the viability at 10 µM stood at 50%. In the case of `CCC(C)(C)c1ccc(Oc2sc(NC(=O)c3ccc([N+](=O)[O-])s3)nc2-c2ccc(C(C)(C)C)cc2)cc1` [Compound 5-101, N-(4-(4-(tert-butyl)phenyl)-5-(4-(tert-pentyl)phenoxy)thiazol-2-yl)-5-nitrothiophene-2-carboxamide], the viability at 10 µM under setting [2] came to 48%. Consider `CCOc1ccc(-c2nc(NC(=O)c3ccc([N+](=O)[O-])s3)sc2Br)cc1` [Compound 6-17, N-(5-bromo-4-(4-ethoxyphenyl)thiazol-2-yl)-5-nitrothiophene-2-carboxamide], for which the viability at 10 µM under setting [3] was 53%. `CCCCOc1ccc(-c2nc(NC(=O)c3ccc([N+](=O)[O-])s3)sc2Oc2ccc(F)cc2)cc1` [Compound 5-73, N-(4-(4-butoxyphenyl)-5-(4-fluorophenoxy)thiazol-2-yl)-5-nitrothiophene-2-carboxamide]: under setting [2], the viability at 10 µM amounted to 49%.

On to `O=C(Nc1nc(-c2ccc(Br)cc2)cs1)c1ccc([N+](=O)[O-])s1` [Compound 6-7, N-(4-(4-bromophenyl)thiazol-2-yl)-5-nitrothiophene-2-carboxamide], for which the viability at 10 µM under setting [3] was found to be 81%.

As to `CCCOc1ccc(-c2nc(NC(=O)c3ccc([N+](=O)[O-])s3)sc2Oc2ccc(Cl)c(Cl)c2)cc1` [Compound 5-44, N-(5-(3,4-dichlorophenoxy)-4-(4-propoxyphenyl)thiazol-2-yl)-5-nitrothiophene-2-carboxamide], the viability at 10 µM under setting [2] was found to be 41%. `Cc1ccc(-c2nc(NC(=O)c3ccc([N+](=O)[O-])o3)sc2-c2ccc(Br)cc2)cc1` [Compound 6-32, N-(5-(4-bromophenyl)-4-(p-tolyl)thiazol-2-yl)-5-nitrofuran-2-carboxamide]: the viability at 10 µM under setting [3] worked out at 27%.

Consider `CCc1ccc(-c2nc(NC(=O)c3ccc([N+](=O)[O-])s3)sc2Oc2ccc(C(C)(C)C)cc2)cc1` [Compound 5-102, N-(5-(4-(tert-butyl)phenoxy)-4-(4-ethylphenyl)thiazol-2-yl)-5-nitrothiophene-2-carboxamide], for which the viability at 10 µM under setting [2] was found to be 40%. Turning to `O=C(Nc1nc(-c2ccc(Br)cc2)c(Br)s1)c1ccc([N+](=O)[O-])s1` [Compound 6-10, N-(5-bromo-4-(4-bromophenyl)thiazol-2-yl)-5-nitrothiophene-2-carboxamide], the viability at 10 µM under setting [3] came to 50%.

On to `CCCOc1ccc(-c2nc(NC(=O)c3ccc([N+](=O)[O-])s3)sc2Oc2cccnc2)cc1` [Compound 5-13, 5-nitro-N-(4-(4-propoxyphenyl)-5-(pyridin-3-yloxy)thiazol-2-yl)thiophene-2-carboxamide], for which, under setting [2], the viability at 10 µM was determined as 53%.

For `CCCCOc1ccc(-c2nc(NC(=O)c3ccc([N+](=O)[O-])s3)sc2Oc2ccc(Br)cc2)cc1` [Compound 5-86, N-(5-(4-bromophenoxy)-4-(4-butoxyphenyl)thiazol-2-yl)-5-nitrothiophene-2-carboxamide], the viability at 10 µM under setting [2] amounted to 24%.

Consider `CC(C)(C)c1ccc(-c2nc(NC(=O)c3ccc([N+](=O)[O-])s3)sc2C(=O)NC2CC2)cc1` [Compound 6-44, 4-(4-(tert-butyl)phenyl)-N-cyclopropyl-2-(5-nitrothiophene-2-carboxamido)thiazole-5-carboxamide], for which, under setting [3], the viability at 10 µM amounted to 81%. Regarding `CCOc1ccc(-c2nc(NC(=O)c3ccc([N+](=O)[O-])s3)sc2Oc2ccc(F)cc2)cc1` [Compound 5-55, N-(4-(4-ethoxyphenyl)-5-(4-fluorophenoxy)thiazol-2-yl)-5-nitrothiophene-2-carboxamide], the viability at 10 µM under setting [2] was 47%. For the compound `CCOc1ccc(-c2nc(NC(=O)c3ccc([N+](=O)[O-])s3)sc2Cc2ccc(F)cc2)cc1` [Compound 6-35, N-(4-(4-ethoxyphenyl)-5-(4-fluorobenzyl)thiazol-2-yl)-5-nitrothiophene-2-carboxamide], under setting [3], the viability at 10 µM came to 47%.

With `CN1CCN(C(=O)c2sc(NC(=O)c3ccc([N+](=O)[O-])s3)nc2-c2ccc(C(C)(C)C)cc2)CC1` [Compound 6-43, N-(4-(4-(tert-butyl)phenyl)-5-(4-methylpiperazine-1-carbonyl)thiazol-2-yl)-5-nitrothiophene-2-carboxamide], the viability at 10 µM under setting [3] was determined as 38%.

For `Cc1ccc(-c2nc(NC(=O)c3ccc([N+](=O)[O-])s3)sc2-c2cccc([N+](=O)[O-])c2)cc1` [Compound 6-3, 5-nitro-N-(5-(3-nitrophenyl)-4-(p-tolyl)thiazol-2-yl)thiophene-2-carboxamide], the viability at 10 µM under setting [3] stood at 84%.

Consider `CCCOc1ccc(-c2nc(NC(=O)c3ccc([N+](=O)[O-])s3)sc2C(=O)N2CCOCC2)cc1` [Compound 6-29, N-(5-(morpholine-4-carbonyl)-4-(4-propoxyphenyl)thiazol-2-yl)-5-nitrothiophene-2-carboxamide], for which the viability at 10 µM under setting [3] amounted to 58%.

`CCCCc1ccc(Oc2sc(NC(=O)c3ccc([N+](=O)[O-])s3)nc2-c2ccc(C(C)(C)C)cc2)cc1` [Compound 5-89, N-(4-(4-(tert-butyl)phenyl)-5-(4-butylphenoxy)thiazol-2-yl)-5-nitrothiophene-2-carboxamide]: under setting [2], the viability at 10 µM was found to be 36%. Regarding `CCOc1ccncc1-c1nnc(NC(=O)Cc2ccc3nc(N)sc3c2)s1` [Compound 1-34, 2-(2-aminobenzo[d]thiazol-6-yl)-N-(5-(4-ethoxypyridin-3-yl)-1,3,4-thiadiazol-2-yl)acetamide], the viability at 10 µM under setting [1] was 78%.

`CCCCc1ccc(-c2nc(NC(=O)c3ccc([N+](=O)[O-])s3)sc2Oc2ccccc2)cc1` [Compound 5-79, N-(4-(4-butylphenyl)-5-phenoxythiazol-2-yl)-5-nitrothiophene-2-carboxamide]: the viability at 10 µM under setting [2] was found to be 31%. For the compound `CCCc1ccc(-c2nc(NC(=O)c3ccc([N+](=O)[O-])s3)sc2Oc2ccccc2)cc1` [Compound 5-77, 5-nitro-N-(5-phenoxy-4-(4-propylphenyl)thiazol-2-yl)thiophene-2-carboxamide], under setting [2], the viability at 10 µM was 33%.

`CC(C)(C)c1ccc(-c2nc(NC(=O)c3ccc([N+](=O)[O-])s3)sc2-c2cccc(F)c2)cc1` [Compound 6-41, N-(4-(4-(tert-butyl)phenyl)-5-(3-fluorophenyl)thiazol-2-yl)-5-nitrothiophene-2-carboxamide]: the viability at 10 µM under setting [3] came to 36%.
